According to PubChem BioAssay (NCI):
Values joined by “and” are separate entries in the source; they are usually repeats but may differ in a detail not shown here. Identical values can stand only once.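 Protocol summary: plate cells (96-well), add compound at 5 concentrations, incubate 48 h, interpolate endpoints linearly. GI50 marks 50% less growth. TGI: concentration producing complete growth inhibition.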

Experiments:
Test in all cases: DTP human tumour cell line panel, 48 h
HCT-15 colon = test system: HCT-15 colon
LOX IMVI melanoma = test system: LOX IMVI melanoma
MALME-3M melanoma = test system: MALME-3M melanoma
MOLT-4 leukemia = test system: MOLT-4 leukemia
NCI-H226 lung = test system: NCI-H226 lung
OVCAR-3 ovarian = test system: OVCAR-3 ovarian
SK-MEL-5 melanoma = test system: SK-MEL-5 melanoma
SNB-19 CNS = test system: SNB-19 CNS
SNB-75 CNS = test system: SNB-75 CNS
SW-620 colon = test system: SW-620 colon

SMILES	GI50 (HCT-15 colon)	TGI (HCT-15 colon)	GI50 (LOX IMVI melanoma)	TGI (LOX IMVI melanoma)	GI50 (MALME-3M melanoma)	TGI (MALME-3M melanoma)	GI50 (MOLT-4 leukemia)	TGI (MOLT-4 leukemia)	GI50 (NCI-H226 lung)	TGI (NCI-H226 lung)	GI50 (OVCAR-3 ovarian)	TGI (OVCAR-3 ovarian)	GI50 (SK-MEL-5 melanoma)	TGI (SK-MEL-5 melanoma)	GI50 (SNB-19 CNS)	TGI (SNB-19 CNS)	GI50 (SNB-75 CNS)	TGI (SNB-75 CNS)	GI50 (SW-620 colon)	TGI (SW-620 colon)
CC(=O)N[C@@H](Cc1ccc(OP(=O)(O)O)cc1)C(=O)N[C@H]1CCC(=O)N2CCC[C@@H](C(=O)NCc3cccc4ccccc34)N2C1=O	> 25 µM	> 25 µM	> 25 µM	> 25 µM	> 25 µM	> 25 µM	> 25 µM	> 25 µM	> 25 µM	> 25 µM	> 25 µM	> 25 µM	> 25 µM	> 25 µM	> 25 µM	> 25 µM	> 25 µM	> 25 µM	> 25 µM	> 25 µM
Nc1nc(N)c2cc(Sc3ccc(Cl)cc3)ccc2n1	0.491 µM	14.9 µM	0.35 µM	4.07 µM	1.25 µM	3.27 µM	1.9 µM	11.1 µM	9.71 µM	23.4 µM	3.5 µM	12.6 µM	0.762 µM	2.06 µM	3.71 µM	20.8 µM	5.89 µM	18.7 µM	0.306 µM	1.63 µM
CCN1C2=C(SC(=S)C1=C1SC(C(=O)c3ccccc3)=C(C(=O)c3ccccc3)S1)SC(=Nc1ccccc1)C2=O	> 100 µM	> 100 µM	1.43 µM	7.06 µM	21.2 µM	> 100 µM	0.625 µM	> 22.2 µM	25.7 µM	> 100 µM	30.9 µM	> 100 µM	> 70.8 µM	> 100 µM	53.4 µM	> 100 µM	12.6 µM	> 63.4 µM	1.14 µM	8.38 µM
Cc1ccc([I+]c2ccc(C)cc2)cc1	59.5 µM	> 100 µM	2.33 µM	> 100 µM	1.97 µM	44.8 µM	–	–	17.8 µM	> 100 µM	7.63 µM	> 100 µM	0.79 µM	3.89 µM	16.1 µM	> 100 µM	7.44 µM	> 100 µM	3.94 µM	> 100 µM
COC(=O)C(=O)C(C(=O)C(=O)Nc1ccccc1C(N)=O)c1nc2ccc([N+](=O)[O-])cc2[nH]c1=O (stereo not drawn)	–	> 100 µM	–	> 100 µM	–	> 100 µM	–	> 100 µM	–	> 100 µM	–	–	–	> 100 µM	–	> 100 µM	–	> 100 µM	–	> 100 µM
Cc1cn2c(/C=N/NC3=NCCN3)c(-c3ccc(Cl)c([N+](=O)[O-])c3)nc2s1	–	–	0.871 µM	1.6 µM	–	–	–	–	–	–	–	–	0.989 µM	2.3 µM	1.48 µM	> 50 µM	–	–	0.941 µM	2.46 µM
Clc1ccc(Nc2ncnc3ccccc23)cc1	25.2 µM	> 100 µM	46.8 µM	> 100 µM	33.9 µM	> 100 µM	20.6 µM	59.5 µM	57.2 µM	> 100 µM	34.9 µM	> 100 µM	21.6 µM	56.1 µM	> 100 µM	> 100 µM	–	–	> 100 µM	> 100 µM
O=C(O)c1cc(C(=O)C(=O)c2cc(C(=O)O)c(O)c3ccccc23)c2ccccc2c1O	–	> 100 µM	–	> 100 µM	–	> 100 µM	–	–	–	> 100 µM	–	> 100 µM	–	> 100 µM	–	> 100 µM	–	> 100 µM	–	> 100 µM
Fc1ccc(-c2nn3c(COc4ccccc4Cl)nnc3s2)cc1Oc1ccccc1	38.7 µM	> 100 µM	22.3 µM	51.9 µM	26.2 µM	68.9 µM	–	–	32.7 µM	> 100 µM	22.5 µM	52.5 µM	53.3 µM	> 100 µM	23.4 µM	57.6 µM	30.7 µM	93.7 µM	> 100 µM	> 100 µM
COc1ncnn2ccc(-c3cnc4nc(C)n(Cc5nnc(C(C)F)o5)c4c3)c12 (stereo not drawn)	0.199 µM	–	0.144 µM	0.619 µM	0.264 µM	0.75 µM	0.231 µM	> 20.8 µM	0.156 µM	0.949 µM	–	–	–	–	0.198 µM	> 100 µM	0.191 µM	1.75 µM	0.0511 µM	> 100 µM
CCOC(=O)Cc1csc(Nc2nc(O)c(C3=c4ccccc4=NC3=O)s2)n1	27.4 µM	> 100 µM	22.1 µM	54.2 µM	25.5 µM	78.4 µM	36.7 µM	88.9 µM	21.3 µM	42.8 µM	26.9 µM	61.5 µM	28.5 µM	> 100 µM	38.4 µM	> 100 µM	–	–	68.5 µM	> 100 µM
O=C1C2=C(c3ccccc31)C(c1ccccc1Cl)NC(=S)N2 (stereo not drawn)	–	> 100 µM	–	–	–	> 100 µM	–	> 100 µM	–	> 100 µM	–	> 100 µM	–	46 µM	–	> 100 µM	–	> 100 µM	–	> 100 µM
Cc1ccccc1C(C#N)/C(=N/NC(N)=S)C(=O)Nc1c(C)cccc1C (stereo not drawn)	–	–	–	> 100 µM	–	> 100 µM	–	> 100 µM	–	> 100 µM	–	> 100 µM	–	> 100 µM	–	> 100 µM	–	> 100 µM	–	> 100 µM
Cn1cnc([N+](=O)[O-])c1Sc1nccn1-c1ccccc1	–	–	–	46.9 µM	–	62.8 µM	–	74.1 µM	–	> 100 µM	–	> 100 µM	–	> 100 µM	–	> 100 µM	–	> 100 µM	–	> 100 µM
O=C(O)c1ccc(NCn2nc(-c3ccccc3O)oc2=S)cc1O	32 µM	92.6 µM	25.4 µM	> 100 µM	–	–	26.1 µM	82.1 µM	21 µM	> 100 µM	> 100 µM	> 100 µM	> 100 µM	> 100 µM	> 100 µM	> 100 µM	–	–	41.9 µM	> 100 µM
Nc1cc2c(c3ccccc13)C(CCl)CN2C(=O)c1cc2cc(NC(=O)c3cc4ccccc4o3)ccc2[nH]1 (stereo not drawn)	> 0.11 µM	1.15 µM	> 0.11 µM	256 µM	> 0.11 µM	0.00771 µM and < 0.11 µM	–	–	–	–	–	–	–	–	–	0.408 µM	–	–	–	–
